Reference: patent US20230250478A1, “DIAGNOSIS AND TREATMENT OF CHRONIC DIABETIC COMPLICATIONS USING LONG NONCODING RNAS AS TARGETS” (THE UNIVERSITY OF WESTERN ONTARIO, priority 2020, published 2023)

Legend:
Format in all cases: cell-based, human
HRECs [1] = assay: 2-DG pre-treatment of HRECs, RT-qPCR
Procedure: (§1) Following the concentrations documented in previous studies, DZNep (Cayman Chemical, Ann Arbor, Mich., USA; 5 μM), 5-aza-dC (Sigma, St. Louis, USA; 5 μM) or 2-DG (Sigma; 0.6 mM and 5 mM) pre-treatment was applied to HRECs for 1 hour prior to the addition of D-glucose (22,27,55,58). DZNep, 5-aza-dC or 2-DG-treated HRECs and their respective controls were collected at 48 hours for further analyses.
(§2) As extensively described by us (22,27,33,55-57), total RNA was extracted using the TRIzol reagent (Invitrogen). Once total RNA was obtained, a spectrophotometer (260 nm; Gene Quant, Pharmacia Biotech, USA) was used to quantify RNA concentrations in which 1-2 μg of total RNA was reverse transcribed to complementary DNA (cDNA) using a high-capacity cDNA reverse-transcription kit (Applied Biosystems/Thermo Fisher Scientific). cDNA was then amplified in the LightCycler 96 System (Roche Diagnostics, Laval, QC, CAN) using the SYBR-green master mix (Takara Bio, Mountain View, Calif., USA) and specific primers for the genes of interest (Sigma; Tables 1-2). RT-qPCR results were analyzed using the LightCycler 96 SW 1.1 software (Roche) and expression levels were calculated by the relative standard curve method using β-actin as an internal control for sample normalization.

HRECs [2] = assay: Trypan blue exclusion assay; conditions: 2-DG-treated HRECs, data not shown
HRECs [3] = assay: 5-aza-dC pre-treatment of HRECs, RT-qPCR
Procedure: as §1, §2

HRECs [4] = assay: DZNep pre-treatment of HRECs, RT-qPCR
Procedure: as §1, §2

HOTAIR = assay: siRNA-mediated knockdown of HOTAIR in HRECs, RT-qPCR; conditions: for reduction of HOTAIR RNA levels: HG-cultured HRECs, 48 hours, compared to SCR HG controls; for transcript levels of VEGF-A, ET-1 and ANGPTL4: custom double-stranded siRNAs, HRECs, HG
Procedure: Human retinal microvascular endothelial cells (HRECs; Cell Systems, Kirkland, Wash., USA; catalog number ACBRI 181), mouse retinal microvascular endothelial cells (MRECs; Applied Biological Materials Inc., Richmond, BC, CAN), and primary lung endothelial cells (MLECs) from C57BL/6J mice were cultured in endothelial basal media-2 (EBM-2, Lonza, Walkersville, Md., USA) containing endothelial growth media-2 (EGM-2) SingleQuots (Lonza). All cells were grown in 75 cm^2 culture flasks and maintained in a humidified incubator containing 5% CO2 at 37° C. As described previously (22,55,56), in order to reduce variability for experimentation, cells were used between passages three and six and the cellular densities were determined accordingly based on the type of culture plates used for each experiment. Generally, once 80% confluence was obtained post-seeding, ECs were cultured in serum and growth factor-free medium overnight before exposure to different D-glucose levels (final glucose concentrations of 5 mmol/L, mimicking normoglycemia [NG], and 25 mmol/L, mimicking hyperglycemia [HG]) for various durations; the selected glucose levels are based on a large volume of previous experiments (22,27,33,55-57). All in vitro or ex vivo experiments were independently repeated at least three times and performed with six replicates, unless specified.
HRECs were transfected using scrambled siRNAs (ID number: AM4635 [SCR], Thermo Fisher Scientific) or pre-designed siRNAs targeting human HOTAIR (ID: n272221 [si1-HOTAIR], Thermo Fisher Scientific; n272222 [si2-HOTAIR], Thermo Fisher Scientific; R-187951-00-0005 [SMARTpool siHOTAIR], Horizon Discovery; Table 6, top panel), EZH2 (ID: M-004218-03-0005 [SMARTpool si-EZH2], Horizon Discovery), CTCF (ID: M-020165-02-0005 [SMARTpool siCTCF], Horizon Discovery), DNMT1 (ID: s4216 [siDNMT1], Thermo Fisher Scientific) or mouse Hotair (ID: R-173526-00-0005 [SMARTpool siHOTAIR], Horizon Discovery, Table 6, bottom panel) using Lipofectamine 2000 (Invitrogen, Burlington, ON, Canada) and Opti-MEM reduced serum media (Thermo Fisher Scientific). As documented previously by us (22,27,33,55-57), cells were transfected with 100 nM of each siRNA for 3-4 hours and subsequently recovered in complete EBM-2 overnight. Cells were then serum starved the following morning, between 18-24 hours, and then incubated with specific glucose concentrations (5 mmol/L or 25 mmol/L) for 48 hours. Knockdown of the target genes were then confirmed using RT-qPCR.
as §2

[5] = 5-aza-dC 5 μM, HRECs, compared to HG controls
[6] = DZNep 5 μM plus HG, 48 hours, compared to SCR HG cells

Which results are given for `O=CC[C@@H](O)[C@H](O)[C@H](O)CO` [2-DG, 2-deoxy-D-glucose]?
HOXD3 and HOXD10 expressions (HRECs [1]; 5 mM 2-DG, HRECs cultured with HG, compared to HG controls): significantly upregulated; PARP1 and P300 expressions (HRECs [1]; 5 mM 2-DG, HRECs, HG): did not induce significant reductions; expressions of DNMT3A and DNMT3B (HRECs [1]; 5 mM of 2-DG, HRECs, HG): no differences were observed; expressions of EZH2, SUZ12, EED and DNMT1 (HRECs [1]; 5 mM of 2-DG, HRECs, HG): significant reductions; HG-induced expressions of HOTAIR, VEGF-A, ET-1, ANGPTL4, MCP-1, IL-1β, CTCF and Cytochrome B (HRECs [1]; 2-DG 0.6 or 5 mM, HRECs, HG 48 hours): significantly blocked; viability (HRECs [2]): 45-55%

For `Nc1ncn([C@H]2C[C@H](O)[C@@H](CO)O2)c(=O)n1` [5-aza-dC, 5-Aza-2′-deoxycytidine], which “reduction of DNMT3A RNA levels” value (HRECs [3]; [5]) is on record?
The value was ~58%.

And the “reduction of DNMT3B RNA levels” value (HRECs [3]; [5])?
Its value is ~69%.

What about the “ANGPTL4, P300 and PARP1 expressions” value (HRECs [3]; 5-aza-dC-treated HRECs, HG) of the same compound?
Its value is “no significant differences”.

What about the “HOTAIR, ET-1, CTCF, Cytochrome B, MCP-1, IL-1β, HOXD3 and HOXD10 transcripts” value (HRECs [3]; 5-aza-dC-treated HRECs, HG) of the same compound?
Its value is “significant elevations”.

What about the “glucose-induced increases in VEGF-A RNA expressions” value (HRECs [3]; 5-aza-dC-treated HRECs, HG) of the same compound?
Its value is “significantly prevented”.

What about the “HOTAIR expressions and its downstream targets” value (HRECs [3]; summary statement in Example 3) of the same compound?
Its value is “can reduce”.

Which “HOTAIR, VEGF-A, ANGPTL4, CTCF, PARP1, P300 and Cytochrome B transcripts” value (HRECs [4]; DZNep 5 μM and HG, compared to SCR HG controls) does the source give for `Nc1nccc2c1ncn2[C@@H]1C=C(CO)[C@@H](O)[C@H]1O` [DZNep, 3-Deazaneplanocin A] here?
The value was “statistically significant reductions”.

And the “reduction of EED transcripts” value (HRECs [4]; [6])?
Its value is ~61%.

What about the “reduction of EZH2 transcripts” value (HRECs [4]; [6]) of the same compound?
Its value is ~72%.

What about the “reduction of SUZ12 transcripts” value (HRECs [4]; [6]) of the same compound?
Its value is ~48%.

What about the “ET-1, MCP-1, IL-1β, HOXD3 and HOXD10 transcripts” value (HRECs [4]; DZNep 5 μM pre-treatment plus HG culture) of the same compound?
Its value is “significantly augmented”.

And the “HOTAIR expressions and its downstream targets” value (HRECs [4]; summary statement in Example 3)?
The value was “can reduce”.

With “siHOTAIR SB1: custom 21-nt duplex siRNA; sense CCAAAGAGUCUGAUGUUUACA, antisense UAAACAUCAGACUCUUUGGGG; HOTAIR target position 457-479 (RNA, backbone not given here) [custom 21-nt duplex siRNA; HOTAIR target position 457-479]” as the compound, how does the “reduction of HOTAIR RNA levels” value (HOTAIR) read?
The value was ~67%.

What about the “transcript levels of VEGF-A, ET-1 and ANGPTL4” value (HOTAIR) of the same compound?
Its value is “greatest reductions”.

“siHOTAIR SB2: custom 21-nt duplex siRNA; sense CAUAAACAAUAUAUCUGUUGG, antisense AACAGAUAUAUUGUUUAUGAG; HOTAIR target position 1156-1178 (RNA, backbone not given here) [custom 21-nt duplex siRNA; HOTAIR target position 1156-1178]” was tested. Which “reduction of HOTAIR RNA levels” value (HOTAIR) did it give?
Its value is ~41%.

And the “transcript levels of VEGF-A, ET-1 and ANGPTL4” value (HOTAIR)?
The value was “greatest reductions”.

“siHOTAIR SB3: custom 21-nt duplex siRNA; sense CUCUAUAAUAUGCUUAUAUUA, antisense AUAUAAGCAUAUUAUAGAGUU; HOTAIR target position 1700-1722 (RNA, backbone not given here) [custom 21-nt duplex siRNA; HOTAIR target position 1700-1722]” was tested. Which “reduction of HOTAIR RNA levels” value (HOTAIR) did it give?
Its value is ~57%.

With “siHOTAIR SB4: custom 21-nt duplex siRNA; sense GUGUAUAUAUAAUAAUGUAUU, antisense UACAUUAUUAUAUAUACACAA; HOTAIR target position 2160-2182 (RNA, backbone not given here) [custom 21-nt duplex siRNA; HOTAIR target position 2160-2182]” as the compound, how does the “reduction of HOTAIR RNA levels” value (HOTAIR) read?
Its value is ~32%.
